Counter-ions that a name gives are not always drawn.
Key:
Streptomyces MBT3 = test: TLC biogram / agar overlay antimicrobial assay of EtOAc extracts of Streptomyces MBT3 cultures treated with plant hormones; format: cell-based, Streptomyces sp MBT3 (indicator strain B. subtilis); settings: methyl-jasmonate 100 μM or salicylic acid 250 μM added to 7 day cultures, 24 hours; B. subtilis indicator
Procedure: All media for growth of Streptomyces are described in (Kieser et al., 2000). For the preparation of Streptomyces cultures, spores were obtained from SFM agar plates and inoculated at a density of 5×10^6 into 20 ml liquid minimal media with mannitol and glycerol as the carbon sources culture media in a 250 ml Erlenmeyer flask and incubated at 30° C. in a rotary shaker (250 rpm). Mycelia were precipitated by centrifugation for 10 minutes at 12,000 g. Each replicate of culture supernatant was extracted twice with an equal amount (40 ml in total) of analytically pure EtOAc (Sigma-Aldrich St. Louis, Mo., USA). Two grams of Na2SO4 was then added into the organic phase to remove remaining water and was evaporated under vacuum at 38° C. Samples were then re-dissolved in Methanol-d4 (99.8%) (Cambridge Isotope Laboratories, Inc., Andover, Mass., USA) for NMR analysis. 1.5 ml of the culture was collected every three hours and centrifuged. […]
Actinomycetes are very abundantly present in the plant rhizosphere. […] The ethyl acetate extract of the culture fluid of MBT3 was analyzed further for metabolic profile and antimicrobial activity against Bacillus subtilis.
Antimicrobial activity of the extracts was analyzed using thin layer chromatography (TLC) biograms. […]

Bacillus subtilis 168 = test: Antibiotic MIC tests in microtiter plates
Legionella pneumophila = settings: Sasaki et al., 2012; cited from earlier work

SMILES	effect on antimicrobial activity (bioactivity) of MBT3 (Streptomyces MBT3)	MIC (Bacillus subtilis 168; Bacillus subtilis, 168, compound alone (Table 4)) [µg/mL]	growth inhibitory effect (Legionella pneumophila)	activity against B. subtilis (Bacillus subtilis 168; compound itself, at concentrations below 5 mg/ml)
O=C(O)c1ccccc1O [Salicylic acid (sodium salt), Salicylic acid]	no effect	> 1500	–	–
Nc1ccccc1C(=O)O [anthranilic acid]	–	–	mild growth inhibitory effect	did not show any activity
CC/C=C\CC1C(=O)CCC1CC(=O)OC (centres unmarked) [methyl jasmonate]	strongly enhanced	–	–	–
